The target in assay [1] is BIR2 domain of XIAP (Homo sapiens (Human), UniProt P98170, C202A/C213G). Nature of the assay: TR-FRET assay for BIR2 (inhibition of binding of XIAP BIR2 domain to SMAC-derived Peptide A). The settings on record: 6x His-tagged BIR2 domain (aa 124-240 of XIAP) 10 nM, Peptide A 20 nM, TR-FRET; read-out: IC50 BIR2. (Time-resolved FRET reads energy transfer from a long-lived donor to a nearby acceptor.)

The target in assay [2] is BIR3 domain of XIAP (Homo sapiens (Human), UniProt P98170). The assay can be described thus: TR-FRET assay for BIR3 (inhibition of binding of XIAP BIR3 domain to SMAC-derived Peptide A). Conditions: 6x His-tagged BIR3 domain (aa 241-356 of XIAP) 10 nM, Peptide A 20 nM, TR-FRET.
Chain of BIR3 domain of XIAP (P98170 241-356 with tags or gaps limits assumed): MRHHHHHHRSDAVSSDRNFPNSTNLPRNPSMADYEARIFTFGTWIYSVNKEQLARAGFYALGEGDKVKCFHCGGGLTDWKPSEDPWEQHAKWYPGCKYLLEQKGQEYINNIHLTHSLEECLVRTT

Where a name gives a salt, the structure may show the parent alone.

The values below come from patent publication US10053431B2, “Tetrahydro-benzodiazepinones” (priority 2013, dated 2018).

In general, IC50 refers to the concentration that inhibits the measured activity by half.

Chain of BIR2 domain of XIAP (P98170 124-240 with tags or gaps C202A/C213G limits assumed): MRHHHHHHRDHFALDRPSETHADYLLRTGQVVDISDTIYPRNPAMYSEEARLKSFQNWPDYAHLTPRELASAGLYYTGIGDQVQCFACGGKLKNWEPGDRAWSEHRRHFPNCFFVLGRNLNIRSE

For `CN[C@@H](C)C(=O)N[C@H]1CN(C(=O)c2ccccc2[C@H](C)O)c2ccccc2N(Cc2c(C)ccc3ccccc23)C1=O` (stereo in doubt) [Example 148, (2S)-N-[(3S)-1-[2-[(1S)-1-hydroxyethyl]benzoyl]-5-[(2-methylnaphthalen-1-yl)methyl]-4-oxo-2,3-dihydro-1,5-benzodiazepin-3-yl]-2-(methylamino)propanamide;(2S)-N-[(3S)-1-[2-[(1R)-1-hydroxyethyl]benzoyl]-5-[(2-methylnaphthalen-1-yl)methyl]-4-oxo-2,3-dihydro-1,5-benzodiazepin-3-yl]-2-(methylamino)propanamide], the IC50 in assay [1] is 0.0401 µM; in assay [2], above 54.8 µM.
The matching figures for `CN[C@@H](C)C(=O)N[C@H]1CN(C(=O)Cc2ccccc2)c2ccccc2N(Cc2cccc3ccccc23)C1=O` [Example 4, (S)-2-Methylamino-N—((S)-1-naphthalen-1-ylmethyl-2-oxo-5-phenylacetyl-2,3,4,5-tetrahydro-1H-benzo[b][1,4]diazepin-3-yl)-propionamide hydrochloride]: 0.409 µM and above 54 µM.
The like results for `CN[C@@H](C)C(=O)N[C@H]1CN(C(=O)c2ccncc2)c2ccccc2N(Cc2c(C)ccc3ccccc23)C1=O` [Example 9, (S)-2-Methylamino-N—[(S)-1-(2-methyl-naphthalen-1-naphthalen-1 ylmethyl)-2-oxo-5-(pyridine-4-carbonyl)-2,3,4,5-tetrahydro-1H-benzo[b][1,4]diazepin-3-yl]-propionamide hydrochloride] were, in that order, 0.52 µM and above 54.8 µM.
Turning to `CN[C@@H](C)C(=O)N[C@H]1CN(C(=O)COCCOC)c2ccccc2N(Cc2c(C)ccc3ccccc23)C1=O` [Example 10, (S)—N—[(S)-5-[2-(2-methoxy-ethoxy)-acetyl]-1-(2-methyl-naphthalen-1-ylmethyl)-2-oxo-2,3,4,5-tetrahydro-1H-benzo[b][1,4]diazepin-3-yl]-2-methylamino-propionamide hydrochloride], the IC50 was 0.364 µM in assay [1] and above 54.8 µM in assay [2].
In the case of `CN[C@@H](C)C(=O)N[C@H]1CN(C(=O)CC(N)=O)c2ccccc2N(Cc2c(C)ccc3ccccc23)C1=O` [Example 11, (S)—N—[(S)-5-(2-Carbamoyl-acetyl)-1-(2-methyl-naphthalen-1-ylmethyl)-2-oxo-2,3,4,5-tetrahydro-1H-benzo[b][1,4]diazepin-3-yl]-2-methylamino-propionamide hydrochloride], the values for the IC50 in assay [1] and in assay [2] were 0.426 µM and above 54.8 µM, respectively.
The matching figures for `CN[C@@H](C)C(=O)N[C@H]1CN(C(=O)CN2CCN(C)CC2)c2ccccc2N(Cc2c(C)ccc3ccccc23)C1=O` [Example 12, (S)-2-methylamino-N—{(S)-1(2-methyl-naphthalen-1-ylmethyl)-5-[2-(4-methyl-piperazin-1-yl)-acetyl]-2-oxo-2,3,4,5-tetrahydro-1H-benzo[b][1,4]diazepin-3-yl}-propionamide hydrochloride]: 0.82 µM and above 54.8 µM.
The like results for `CN[C@@H](C)C(=O)N[C@H]1CN(C(=O)c2ccc(S(C)(=O)=O)cc2)c2ccccc2N(Cc2c(C)ccc3ccccc23)C1=O` [Example 13c] were, in that order, 0.119 µM and above 54.8 µM.
The like results for `CN[C@@H](C)C(=O)N[C@H]1CN(C(=O)CCCCC(=O)OC)c2ccccc2N(Cc2c(C)ccc3ccccc23)C1=O` [Example 13e] were, in that order, 0.308 µM and above 54.8 µM.
`CN[C@@H](C)C(=O)N[C@H]1CN(C(=O)c2ccc(C(C)=O)cc2)c2ccccc2N(Cc2c(C)ccc3ccccc23)C1=O` [Example 13f]: the IC50 in assay [1] is 0.054 µM; in assay [2] it was above 54.8 µM.
With `CN[C@@H](C)C(=O)N[C@H]1CN(C(=O)c2ccc(C(=O)O)cc2)c2ccccc2N(Cc2c(OC)ccc3cc(Br)ccc23)C1=O` [Example 29, 4-[(S)-5-(6-Bromo-2-methoxy-naphthalen-1-ylmethyl)-3-((S)-2-methylamino-propionylamino)-4-oxo-2,3,4,5-tetrahydro-benzo[b][1,4]diazepine-1-carbonyl]-benzoic acid hydrochloride], in assay [1], the IC50 came to 0.028 µM.
Regarding `CN[C@@H](C)C(=O)N[C@H]1CN(C(=O)C23CC4CC(CC(C4)C2)C3)c2ccccc2N(Cc2c(OC)ccc3cc(Br)ccc23)C1=O` [Example 34, (S)—N—[(S)-5-(Adamantane-1-carbonyl)-1-(6-bromo-2-methoxy-naphthalen-1-ylmethyl)-2-oxo-2,3,4,5-tetrahydro-1H-benzo[b][1,4]diazepin-3-yl]-2-methylamino-propionamide hydrochloride], the IC50 in assay [1] turned out to be 0.033 µM.
Regarding `COc1ccc2cc(Br)ccc2c1CN1C(=O)[C@@H](NC(=O)[C@@H]2CCN2)CN(C(=O)c2ccc(C(C)=O)cc2)c2ccccc21` [Example 36, (S)—N—((S)-5-(4-acetylbenzoyl)-1-((6-bromo-2-methoxynaphthalen-1-yl)methyl)-2-oxo-2,3,4,5-tetrahydro-1H-benzo[b][1,4]diazepin-3-yl)azetidine-2-carboxamide hydrochloride], the IC50 in assay [1] turned out to be 5 µM.
Same read-out and setting: the same measure for `COc1ccc2cc(Br)ccc2c1CN1C(=O)[C@@H](NC(=O)[C@H](C)N)CN(C(=O)c2ccc(C(C)=O)cc2)c2ccccc21` [Example 39, (S)—N—((S)-5-(4-acetylbenzoyl)-1-((6-bromo-2-methoxynaphthalen-1-yl)methyl)-2-oxo-2,3,4,5-tetrahydro-1H-benzo[b][1,4]diazepin-3-yl)-2-aminopropanamide hydrochloride]: 0.019 µM.
The same measure, in the same setting: then `CN[C@@H](C)C(=O)N[C@H]1CN(C(=O)CCCC(C)=O)c2ccccc2N(Cc2c(OC)ccc3cc(C(=O)OC)ccc23)C1=O` [Example 46, 6-Methoxy-5-[(S)-3 ((S)-2-methylamino-propionylamino)-2-oxo-5-(5-oxo-hexanoyl)-2,3,4,5-tetrahydro-benzo[b][1,4]diazepin-1-ylmethyl]-naphthalene-2-carboxylic acid methyl ester hydrochloride], with 0.062 µM; and `CN[C@@H](C)C(=O)N[C@H]1CN(C(=O)CCN)c2ccccc2N(Cc2c(OC)ccc3cc(C(=O)O)ccc23)C1=O` [Example 62, 5-(((S)-5-(3-aminopropanoyl)-3-((S)-2-(methylamino)propanamido)-2-oxo-2,3,4,5-tetrahydro-1H-benzo[b][1,4]diazepin-1-yl)methyl)-6-methoxy-2-naphthoic acid hydrochloride], with 0.017 µM.
In the case of `CN[C@H](C)C(=O)N[C@H]1CN(C(=O)c2ccc(C(C)=O)cc2)c2ccccc2N(Cc2c(C)ccc3ccccc23)C1=O` [Example 68, (R)—N—((S)-5-(4-acetylbenzoyl)-1-((2-methylnaphthalen-1-yl)methyl)-2-oxo-2,3,4,5-tetrahydro-1H-benzo[b][1,4]diazepin-3-yl)-2-(methylamino)propanamide hydrochloride], the IC50 in assay [2] was above 54.8 µM.
Molecule `CN[C@@H](C)C(=O)N[C@H]1CN(C(=O)CC2CCOCC2)c2ccccc2N(Cc2c(OC)ccc3c(Br)cccc23)C1=O` [Example 87, (S)—N—((S)-1-((5-bromo-2-methoxynaphthalen-1-yl)methyl)-2-oxo-5-(2-(tetrahydro-2H-pyran-4-yl)acetyl)-2,3,4,5-tetrahydro-1H-benzo[b][1,4]diazepin-3-yl)-2-(methylamino)propanamide hydrochloride] came in with an IC50 in assay [2] of 54.4 µM.
